From the supplement of paper PMC10307832

How the values were obtained:
Experiment in all cases: relative viability (nuclei count vs DMSO), 5 days (fraction); higher = more cells survive
[1] = compound: C(C(=O)C(=O)O)Br [Bromopyruvate] + CS(=O)(=O)N1CCN(Cc2cc3nc(-c4cccc5[nH]ncc45)nc(N4CCOCC4)c3s2)CC1 [Pictilisib] (partner 1 µM)
In short: (§1)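 Lung cancer cell lines were pin-tool dosed in 1536-well plates on the day after seeding, with either a lone drug or a fixed anchor-drug dose plus five library-drug doses (not always all listed) in √10 steps. Nuclei were counted on 4× images after 5 days. Relative viability is the ratio of treated-well to vehicle-well nuclei counts, with each value a median of duplicate plates.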

[2] = compound: C(C(=O)C(=O)O)Br [Bromopyruvate] + C[C@@H](Oc1cc(-c2cnn(C3CCNCC3)c2)cnc1N)c1c(Cl)ccc(F)c1Cl [Crizotinib] (partner 1 µM)
In short: as §1

[3] = compound: CC(O)(CS(=O)(=O)c1ccc(F)cc1)C(=O)Nc1ccc(C#N)c(C(F)(F)F)c1 [Bicalutamide] + CC(C)C[C@H](NC(=O)[C@H](Cc1ccccc1)NC(=O)c1cnccn1)B(O)O [Bortezomib] (partner 0.002 µM)
In short: as §1

[4] = compound: CC(O)(CS(=O)(=O)c1ccc(F)cc1)C(=O)Nc1ccc(C#N)c(C(F)(F)F)c1 [Bicalutamide] + N=C(N)NC(=N)NCCc1ccccc1 [Phenformin] (partner 250 µM)
In short: as §1

Work on UMC-11 yielded a relative viability ([1]; first compound 1 µM) of 0.797, a relative viability ([1]; first compound 3.162 µM) of 0.797 and a relative viability ([1]; first compound 10 µM) of 0.956. The relative viability ([1]; first compound 31.62 µM) was 0.78, the relative viability ([1]; first compound 100 µM) was 0.78 and the relative viability ([2]; first compound 1 µM) was 0.727. For the same cell line, the relative viability ([2]; first compound 3.162 µM) was 0.655, the relative viability ([2]; first compound 10 µM) was 0.505 and the relative viability ([2]; first compound 31.62 µM) was 0.509. For the same cell line, the relative viability ([2]; first compound 100 µM) was 0.52, the relative viability ([3]; first compound 0.08 µM) was 0.758 and the relative viability ([3]; first compound 0.253 µM) was 0.67. The relative viability ([3]; first compound 0.8 µM) was 0.762, the relative viability ([3]; first compound 2.53 µM) was 0.596 and the relative viability ([4]; first compound 0.08 µM) was 0.35. For the same cell line, the relative viability ([4]; first compound 0.253 µM) was 0.319, the relative viability ([4]; first compound 0.8 µM) was 0.372 and the relative viability ([4]; first compound 2.53 µM) was 0.302.
